{"source": "patent US20200278355A1", "about": "“CONJUGATED PROTEINS AND USES THEREOF” (THE SCRIPPS RESEARCH INSTITUTE, priority 2017, published 2020)", "key": {"[1]": {"target": "T1, TXN (Homo sapiens, UniProt P10599)", "T1 construct": "H460 cells or H460 cells expressing luciferase in a 10 cm plate were incubated with indicated compounds; endogenous in cells; host or cells: H460", "T1 sequence (P10599 whole entry)": "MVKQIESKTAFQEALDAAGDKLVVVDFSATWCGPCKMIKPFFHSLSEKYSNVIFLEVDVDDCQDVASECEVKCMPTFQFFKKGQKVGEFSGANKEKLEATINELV", "assay": "ABPP-SILAC BPK-29yne competition in H460 cells: TXN", "format": "cell-based", "conditions": "20 μM", "description": "(§1) Isotopically labeled H460 cell lines were generated as described above. Light and heavy cells were treated with compounds (20 μM) or DMSO, respectively, for 3 h, followed by labeling with the BPK-29yne (5 μM) for 30 min. Cells were washed once ice-cold PBS and lysed in 1% Triton 100-X dissolved in PBS with protease inhibitors (Sigma) by sonication. Lysate was adjusted to 1.5 mg ml^−1 in 500 μL. Samples were conjugated by CuAAC to Biotin-PEG4-azide (5 μL of 10 mM stocks in DMSO, final concentration=100 μM). CuAAC “click” mix contained TCEP, TBTA ligand and CuSO4 as detailed for isoTOP-ABPP sample preparation. Samples were further processed as detailed in: isoTOP-ABPP streptavidin enrichment and isoTOP-ABPP trypsin TEV digestion with the following exception: after overnight incubation at 37° C. with trypsin, tryptic digests were separated from the beads with Micro Bio-Spin columns (Bio-Rad) by centrifugation (1,000×g, 1 min). Beads were rinsed once with water (200 μL) and combined with tryptic digests. […]\n(§2) The MS2 spectra data were extracted and searched using RAW Convertor and ProLuCID algorithm as described in isoTOP-ABPP peptide and protein quantification. […] Ratios of heavy/light (DMSO/test compound) peaks were calculated using in-house CIMAGE software. […] The mean R values and standard deviation for multiple biological experiments were calculated from the average ratios from each replicate. […]"}, "[2]": {"target": "T2, NUDT8 (Homo sapiens, UniProt Q8WV74)", "T2 construct": "H460 cells or H460 cells expressing luciferase in a 10 cm plate were incubated with indicated compounds; endogenous in cells; host or cells: H460", "T2 sequence (Q8WV74 whole entry)": "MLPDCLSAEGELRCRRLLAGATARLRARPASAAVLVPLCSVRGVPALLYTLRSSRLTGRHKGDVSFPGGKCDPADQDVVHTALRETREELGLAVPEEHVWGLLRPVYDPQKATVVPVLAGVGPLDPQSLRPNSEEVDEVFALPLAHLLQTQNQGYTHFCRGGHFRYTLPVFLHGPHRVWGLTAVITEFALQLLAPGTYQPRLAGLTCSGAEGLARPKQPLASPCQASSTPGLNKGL", "assay": "ABPP-SILAC BPK-29yne competition in H460 cells: NUDT8", "format": "cell-based", "conditions": "20 μM", "description": "as §1, §2"}}}
{"smiles": "O=C(c1ccc(N2CCOCC2)cc1)N1CCCC(N(Cc2ccccc2)C(=O)CCl)CC1", "note": "(centres unmarked) [BPK-29, N-benzyl-2-chloro-N-(1-(4-morpholinobenzoyl)azepan-4-yl)acetamide]", "values": [{"measurement": "BPK-29-competed BPK-29yne analysis", "setting": "[1]", "value": "Yes (Competed defined as showing R value ≥ 2.5 at 20 μM of test compound)"}, {"measurement": "BPK-29-competed BPK-29yne analysis", "setting": "[2]", "value": "Yes (Competed defined as showing R value ≥ 2.5 at 20 μM of test compound)"}]}
